Laboratory results as given in patent US11879145B2, “Reagents and methods for replication, transcription, and translation in semi-synthetic organisms” (The Scripps Research Institute, priority 2019, dated 2024).
“Also recorded” adds a separate entry of the source.

How the values were obtained:
sfGFP^151(AXC) [1] = assay: In vivo translation screen of XTPs/YTPs: protein shift (AzK incorporation) by DBCO-TAMRA western blot; type: cell-based, E. coli; conditions: TPT3TP 30 μM, dCNMO-dTPT3 UBP, strain ML2
Description: (§1) In vivo Translation Screen of XTPs/YTPs. An overnight culture of the SSO strain ML2 carrying the pGEX-MbPylRS TetR plasmid was grown in 2×YT supplemented with 50 mM potassium phosphate, […] chloramphenicol and 100 μg/mL carbenicillin (herein referred to in this section as “media”), then diluted back to an OD600 of 0.03 in the same media and grown to an OD600 of 0.4 to 0.6. The culture was then chilled with shaking over ice-water for 15 minutes then pelleted by centrifugation at 3,200×g for 10 min. Cells were then resuspended and washed with ice-cold ddH2O twice then resuspended in ice-cold ddH2O to OD600 of 55-65. The electrocompetent cells (50 μL) and 1 ng of Golden Gate assembled plasmid with the UBP within the sfGFP and tRNAPyl genes (see Golden Gate Assembly of Plasmids) were transferred to a pre-chilled electroporation cuvette (0.2-cm-gap), then electroporated (Gene Pulser II; Bio-Rad) according to manufacturer's recommendations (voltage […], capacitor 2.5 μF, resistor 200Ω), and then immediately diluted with 950 μL of media. An aliquot (40 μL) of the transformation was then diluted five-fold in media supplemented with dCNMOTP (25 μM) and dTPT3TP (10 μM) for a final volume of 200 μL then allowed to recover for 1 h shaking at 37° C. Two-fold dilutions of the recovery were plated onto solid media supplemented with zeocin (50 μg/mL), dCNMOTP (10 μM), dTPT3TP (10 μM), and agar (2% w/v), then grown at 37° C. for 18 h. Single colonies were picked and grown in media (300 μL) supplemented with 50 μg/mL zeocin and provided dCNMOTP (25 μM) and dTPT3TP (10 μM) (herein afterward referred to in this section as “growth media”). The culture was monitored for cell growth (Envision 2103 Multilabel Plate Reader with a 590/20 nm filter) and then collected at an OD600˜1.0. An aliquot (50 μL) was subjected to plasmid isolation using the ZR Plasmid Prep Kit (Zymo Research). Isolated plasmids were then subjected to the streptavidin gel shift assay described below (using primers P3-4 and P5-6, Table S1) to determine UBP retention.
(§2) A colony with excellent UBP retention was then diluted to an OD600˜0.01 in growth media and grown to OD600˜0.4-0.6. This culture was then divided into multiple 300 μL cultures and for the screen of XTP analogs, each was provided with the corresponding XTP (at either 25 μM or 250 μM) or ddH2O for “−XTP” samples, TPT3TP (30 μM), and AzK (10 mM). For the screen of YTP analogs, each 300 μL culture was provided with the corresponding YTP (at either 25 μM or 250 μM) or ddH2O for “−YTP” samples, NaMTP (250 μM), and AzK (10 mM). Samples were shielded from light after addition of AzK to prevent photodegradation. These samples were then grown at 37° C. for 20 min before adding 1 mM IPTG and grown at 37° C. for an additional 1 h to induce T7 RNAP and transcription of tRNAPyl and PylRS. From this point on, cells were monitored for growth and fluorescence. Expression of sfGFP was then induced with anhydrotetracycline (100 ng/mL). After an additional 3 h of growth at 37° C., cells were collected (230 μL for affinity purification of sfGFP), cooled, and then pelleted and stored at −80° C. before protein purification.
Affinity Purification of sfGFP. Cell pellets collected from translation experiments were resuspended in BugBuster (100 μL 1×, EMD Millipore) and shaken at room temperature for 15 min. […]

E. coli strain ML2 = assay: Cell growth (OD600) / toxicity of unnatural ribonucleoside triphosphates under ribonucleotide screening conditions; type: cell-based; conditions: for OD600: after 3 h of protein induction; for Cell growth / toxicity: YTP at the higher concentration (250 μM)
Description: In vivo Translation Screen of XTPs/YTPs. An overnight culture of the SSO strain ML2 carrying the pGEX-MbPylRS TetR plasmid was grown in 2×YT supplemented with 50 mM potassium phosphate, […] chloramphenicol and 100 μg/mL carbenicillin (herein referred to in this section as “media”), then diluted back to an OD600 of 0.03 in the same media and grown to an OD600 of 0.4 to 0.6. The culture was then chilled with shaking over ice-water for 15 minutes then pelleted by centrifugation at 3,200×g for 10 min. Cells were then resuspended and washed with ice-cold ddH2O twice then resuspended in ice-cold ddH2O to OD600 of 55-65. The electrocompetent cells (50 μL) and 1 ng of Golden Gate assembled plasmid with the UBP within the sfGFP and tRNAPyl genes (see Golden Gate Assembly of Plasmids) were transferred to a pre-chilled electroporation cuvette (0.2-cm-gap), then electroporated (Gene Pulser II; Bio-Rad) according to manufacturer's recommendations (voltage […], capacitor 2.5 μF, resistor 200Ω), and then immediately diluted with 950 μL of media. […] Two-fold dilutions of the recovery were plated onto solid media supplemented with zeocin (50 μg/mL), dCNMOTP (10 μM), dTPT3TP (10 μM), and agar (2% w/v), then grown at 37° C. for 18 h. […] An aliquot (50 μL) was subjected to plasmid isolation using the ZR Plasmid Prep Kit (Zymo Research). Isolated plasmids were then subjected to the streptavidin gel shift assay described below (using primers P3-4 and P5-6, Table S1) to determine UBP retention.
Samples were shielded from light after addition of AzK to prevent photodegradation. These samples were then grown at 37° C. for 20 min before adding 1 mM IPTG and grown at 37° C. for an additional 1 h to induce T7 RNAP and transcription of tRNAPyl and PylRS. From this point on, cells were monitored for growth and fluorescence. Expression of sfGFP was then induced with anhydrotetracycline (100 ng/mL).
Examining the Toxicity of Ribonucleoside Triphosphates. An overnight culture of ML2 was grown in 2×YT media supplemented with 50 mM potassium phosphate and chloramphenicol (5 μg/mL), referred to throughout this section as “media”. This culture was diluted back to an OD600 of 0.01 split into multiple 300 μL cultures, each supplemented with varying concentrations of TPT3TP, TAT1TP, NaMTP, or 5FMTP, along with a no triphosphate control. The cultures were then incubated at 37° C. with shaking at 230 rpm. […] OD600 was then plotted as a function of time for each nucleotide at each concentration to visualize differences in growth rates.

sfGFP^151(AXC) [2] = assay: In vivo translation screen of XTPs/YTPs: total sfGFP fluorescence; type: cell-based, E. coli
Description: as §1, §2
An SAR analysis was initiated with NaMTP and the nine XTP analogs. Based on performance in the dXTP screen described above, and to eliminate variable loss at the DNA level as a complicating factor, the unnatural information was encoded with the dCNMO-dTPT3 UBP. Additionally, the E. coli strain ML2, which expresses the nucleoside triphosphate transporter PtNTT2, but has also been genetically engineered for higher fidelity replication of the UBP by deletion of the gene encoding RecA (as is common in cloning strains) and overexpression of DNA Pol II was used. The same plasmid described above in Examples 1A and 1, harboring sfGFP^151(AXC) and tRNA^Pyl(GYT), was used, and to focus the screen to a single unnatural ribonucleotide, the M. mazei Pyl tRNA was transcribed in the presence of 30 μM TPT3TP. […]

sfGFP^151(AXC) [3] = assay: Optimization of unnatural ribonucleotide triphosphate concentrations (sfGFP fluorescence and protein shift); type: cell-based, E. coli
Description: Examples 1A, 1B, and 2 identified dCNMO-dTPT3 as a competent UBP for the storage of information, and TAT1TP and NaMTP or 5FMTP as competent ribonucleoside triphosphates for its retrieval. Upon transformation with the same plasmids used above, 10 μM dTPT3TP and 25 μM dCNMOTP were provided in the growth media, which was then also supplemented with TAT1TP at concentrations ranging from 100 μM to 12.5 μM, and either NaMTP or 5FMTP at concentrations ranging from 200 μM to 12.5 μM, all in series of 2-fold dilutions, and after the addition of 1 mM AzK, the cells were induced to express sfGFP. […] In both cases, fluorescence was higher at lower concentrations of NaMTP or 5FMTP (due to increased production of contaminating natural sfGFP, see below). Additionally, cells generally produced higher fluorescence at higher concentrations of TAT1TP. […] Protein production was again quantified via the gel shift assay (FIG. 6C and FIG. 6D). Generally, as the concentration of NaMTP decreased below 200 μM, incrementally lower fidelity of AzK incorporation into sfGFP was observed, while with use of 5FMTP this reduction in fidelity was only observed below a concentration of 50 μM. Clearly lower concentrations of 5FMTP can be used without compromising fidelity. Cells provided with a high concentration of 5FMTP (≥50 µM) produced high protein shifts at all concentrations of TAT1TP explored (100 μM, 50 μM, 25 μM, or 12.5 μM).
Optimization of in vivo Translation Conditions. An overnight culture of the SSO strain ML2 carrying the pGEX-MbPylRS TetR plasmid was grown in 2×YT supplemented with 50 mM potassium phosphate, […] chloramphenicol and 100 μg/mL carbenicillin (herein referred to in this section as “media”), then diluted back to an OD600 of 0.03 in the same media and grown to an OD600 of 0.4-0.6. The culture was then chilled with shaking over ice-water for 15 min then pelleted by centrifugation at 3,200×g for 10 min. Cells were then resuspended and washed with ice-cold ddH2O twice then resuspended in ice-cold ddH2O to an OD600 of 55-65. The electrocompetent cells (50 μL) and ˜1 ng of Golden Gate assembled plasmid with the UBP within the sfGFP and tRNAPyl genes (see Golden Gate Assembly of Plasmids) were transferred to a pre-chilled electroporation cuvette (0.2-cm-gap), then electroporated (Gene Pulser II; Bio-Rad) according to manufacturer's recommendations (voltage […], capacitor 2.5 μF, resistor 200Ω), and then immediately diluted with 950 μL of media. […] The culture was monitored for cell growth (Envision 2103 Multilabel Plate Reader with a 590/20 nm filter) and then collected at an OD600˜1.0. […]

COc1ccc(F)cc1[C@@H]1O[C@H](COP(=O)(O)OP(=O)(O)OP(=O)(O)O)[C@@H](O)[C@H]1O [Compound 5F2OMeTP]
sfGFP protein gel shift (ncAA incorporation) (sfGFP^151(AXC) [1]; XTP 250 μM): 94% | OD600 (E. coli strain ML2; XTP 25 μM): 1.14 ± 0.05 | OD600 (E. coli strain ML2; XTP 250 μM): 1.16 ± 0.07

O=P(O)(O)OP(=O)(O)OP(=O)(O)OC[C@H]1O[C@@H](n2ccc3ccsc3c2=S)[C@H](O)[C@@H]1O [TPT3TP]
Greater fluorescence than 5SICSTP (sfGFP^151(AXC) [2]; YTP 25 μM): 6 fold | Greater fluorescence than FSICSTP (sfGFP^151(AXC) [2]; YTP 25 μM): 5 fold | Greater fluorescence than SICSTP (sfGFP^151(AXC) [2]; YTP 25 μM): 2 fold | Protein production (sfGFP^151(AXC) [2]; YTP 25 μM): significant quantities of pure protein | sfGFP fluorescence relative to control without YTP (sfGFP^151(AXC) [2]; YTP 250 μM, NaMTP 250 μM): little fluorescence | Toxicity (E. coli strain ML2; YTP at lower concentrations (25 μM)): somewhat less toxic | Cell growth / toxicity (E. coli strain ML2): significantly reduced cell growth; also recorded: at least slightly toxic

COc1cc2ccccc2cc1[C@@H]1O[C@H](COP(=O)(O)OP(=O)(O)OP(=O)(O)O)[C@@H](O)[C@H]1O [NaMTP]
Concentration for combined optimization of protein purity and yield (sfGFP^151(AXC) [3]; NaMTP and TAT1TP pair): 200 µM | XTP concentration below which lower fidelity of AzK incorporation into sfGFP was observed (sfGFP^151(AXC) [3]; with TAT1TP 12.5-100 μM): 200 µM | sfGFP protein gel shift (ncAA incorporation) (sfGFP^151(AXC) [1]; XTP 25 μM): 86% | sfGFP protein gel shift (ncAA incorporation) (sfGFP^151(AXC) [1]; XTP 250 μM): 98%

O=P(O)(O)OP(=O)(O)OP(=O)(O)OC[C@H]1O[C@@H](n2ccc3ccccc3c2=S)[C@H](O)[C@@H]1O [SICSTP]
OD600 (E. coli strain ML2; YTP 25 μM): 1.25 ± 0.10 | OD600 (E. coli strain ML2; YTP 250 μM): 0.90 ± 0.04 | Cell growth / toxicity (E. coli strain ML2): at least slightly toxic
